Data: paper PMC12396409, “Screening and hit evaluation of a microbial metabolite library against the pathogenic Plasmodium falciparum and Toxoplasma gondii parasites” (International Journal for Parasitology: Drugs and Drug …, 2025)
Read-outs that look alike come from different tables or passages of the source.

Key:
[1] = system: P. falciparum 3D7 parasites; experiment: P. falciparum growth inhibition assay, 1-cycle (72 h treatment), SYBR DNA staining (library screen at 2 μg/mL and dose-response); assay type: cell-based, Plasmodium falciparum; conditions: for activity at 2 µg/mL: Plasmodium falciparum
[2] = system: P. falciparum 3D7 parasites; experiment: P. falciparum growth inhibition assay, 2-cycle (120 h treatment), delayed-death screen and dose-response; assay type: cell-based, Plasmodium falciparum; conditions: for activity at 2 µg/mL: Plasmodium falciparum
[3] = system: T. gondii RH strain (RH-Tub-eYFP) tachyzoites; experiment: microbe, parasite or virus in culture; assay type: cell-based, Toxoplasma gondii; conditions: 72 h, 72 h; for percent parasite growth at 2 µg/mL: Toxoplasma gondii
[4] = 3D7, 72 h, library screen at 2 μg/mL, 72 h, % growth, replicate 1, read-out: Pf_72h_%Growth_Rep1
[5] = 3D7, 72 h, library screen at 2 μg/mL, 72 h, % growth, replicate 2, read-out: Pf_72h_%Growth_Rep2
[6] = 3D7, 120 h, library screen at 2 μg/mL, 120 h, % growth, replicate 1, read-out: Pf_120h_%Growth_Rep1
[7] = 3D7, 120 h, library screen at 2 μg/mL, 120 h, % growth, replicate 2, read-out: Pf_120h_%Growth_Rep2
[8] = library screen at 2 μg/mL, % growth, replicate 1, read-out: Tg_72h_%Growth_Rep1
[9] = library screen at 2 μg/mL, % growth, replicate 2, read-out: Tg_72h_%Growth_Rep2

`CCCCC[C@@H](O)[C@H]1C(=O)O[C@H](C)[C@@H](O)/C=C/C=C/C=C/C=C/C=C(\C)[C@@H](O)C[C@H](O)C[C@H](O)C[C@H](O)C[C@H](O)C[C@H](O)C[C@@H]1O` [Filipin III] gave an activity at 2 µg/mL [1, 4] of 83.6%, an activity at 2 µg/mL [1, 5] of 89.2% and an activity at 2 µg/mL [2, 6] of 97.4%. For the same compound, the activity at 2 µg/mL [2, 7] was 99.7%, the percent parasite growth at 2 µg/mL [3, 8] was 120% and the percent parasite growth at 2 µg/mL [3, 9] was 104%.

With `CC(C)=CC1CC(C)C2(CCC3(C)CC4C(C(=O)CC4(C)O)C(C=O)=CCC32)O1` (stereo not drawn) [BIA-O1063] the Pf_72h_%Growth_Rep1 ([1]; P. falciparum 3D7, 72 h, parasite screen at 2 μg/mL, % growth, replicate 1) was 4.64%, the Pf_72h_%Growth_Rep2 ([1]; P. falciparum 3D7, 72 h, parasite screen at 2 μg/mL, % growth, replicate 2) was 5.89% and the Pf_120h_%Growth_Rep1 ([2]; P. falciparum 3D7, 120 h, parasite screen at 2 μg/mL, % growth, replicate 1) was 10.48%. The Pf_120h_%Growth_Rep2 ([2]; P. falciparum 3D7, 120 h, parasite screen at 2 μg/mL, % growth, replicate 2) was 11.00%, the Tg_72h_%Growth_Rep1 ([3]; T. gondii, parasite screen at 2 μg/mL, % growth, replicate 1) was 5.87% and the Tg_72h_%Growth_Rep2 ([3]; T. gondii, parasite screen at 2 μg/mL, % growth, replicate 2) was 0.78%.

`CO[C@H]1C[C@@H]2CC[C@@H](C)[C@@](O)(O2)C(=O)C(=O)N2CCCC[C@H]2C(=O)O[C@H]([C@H](C)C[C@@H]2CC[C@@H](OC(=O)C(C)(CO)CO)[C@H](OC)C2)CC(=O)[C@H](C)/C=C(\C)[C@@H](O)[C@@H](OC)C(=O)[C@H](C)C[C@H](C)/C=C/C=C/C=C/1C` [Temsirolimus] showed an activity at 2 µg/mL ([1]; 3D7, P. falciparum, 72 h, screen at 2 μg/mL, replicate 1, read-out: Pf_72h_%Growth_Rep1) of 59.1%, an activity at 2 µg/mL ([1]; 3D7, P. falciparum, 72 h, screen at 2 μg/mL, replicate 2, read-out: Pf_72h_%Growth_Rep2) of 47.4% and an activity at 2 µg/mL ([2]; 3D7, P. falciparum, 120 h, screen at 2 μg/mL, replicate 1, read-out: Pf_120h_%Growth_Rep1) of 61.2%. The activity at 2 µg/mL ([2]; 3D7, P. falciparum, 120 h, screen at 2 μg/mL, replicate 2, read-out: Pf_120h_%Growth_Rep2) was 46.5%, the percent parasite growth at 2 µg/mL ([3]; T. gondii, screen at 2 μg/mL, replicate 1, read-out: Tg_72h_%Growth_Rep1) was 97% and the percent parasite growth at 2 µg/mL ([3]; T. gondii, screen at 2 μg/mL, replicate 2, read-out: Tg_72h_%Growth_Rep2) was 76.6%.

Work on `C[C@@H]1[C@H](O)[C@@H](C)/C=C/C=C/C=C/C=C/C=C/C=C/C=C/[C@H](O[C@@H]2O[C@H](C)[C@@H](O)[C@H](N)[C@@H]2O)C[C@@H]2O[C@](O)(C[C@@H](O)C[C@@H](O)[C@H](O)CC[C@@H](O)C[C@@H](O)CC(=O)O[C@H]1C)C[C@H](O)[C@H]2C(=O)O` [Amphotericin B] yielded an activity at 2 µg/mL [1, 4] of 84.3%, an activity at 2 µg/mL [1, 5] of 90.2% and an activity at 2 µg/mL [2, 6] of 77%. For the same compound, the activity at 2 µg/mL [2, 7] was 69.3%, the percent parasite growth at 2 µg/mL [3, 8] was 101% and the percent parasite growth at 2 µg/mL [3, 9] was 86.5%.

In the case of `COc1ccc2c3c(c4cc(OC)c(OC)cc4c2c1)C[C@H]1CCCCN1C3` [Cryptopleurine], the “activity in the screen against P. falciparum” value ([1]; 2 μg/mL, 72 h, active = ≥80 % growth inhibition) is reported as “activity against both parasites”, the IC50 ([1]; 3D7, 72 h treatment, mean ± S.D., n ≥ 3, read-out: IC50 (μM), P. falciparum) is reported as 0.008 ± 0.003 µM and the Pf_72h_%Growth_Rep1 ([1]; P. falciparum, 72 h, screen at 2 μg/mL, replicate 1) is reported as 8.09%. The Pf_72h_%Growth_Rep2 ([1]; P. falciparum, 72 h, screen at 2 μg/mL, replicate 2) was -1.65%, the “Screen (P. falciparum)” value ([1]; library screen at 2 μg/mL, 3D7, 72 h, DD from the 120 h timepoint) was “A, A” and the Pf_120h_%Growth_Rep1 ([2]; P. falciparum, 120 h, screen at 2 μg/mL, replicate 1) was 9.09%. For the same compound, the Pf_120h_%Growth_Rep2 ([2]; P. falciparum, 120 h, screen at 2 μg/mL, replicate 2) was 3.06%, the “activity in the screen against T. gondii” value ([3]; 2 μg/mL, active = ≥80 % growth inhibition) was “activity against both parasites” and the IC50 ([3]; RH strain, mean ± S.D., n ≥ 3, read-out: IC50 (μM), T. gondii (converted)) was 0.011 µM. For the same compound, the Tg_72h_%Growth_Rep1 ([3]; T. gondii, screen at 2 μg/mL, replicate 1) was 6.11%, the Tg_72h_%Growth_Rep2 ([3]; T. gondii, screen at 2 μg/mL, replicate 2) was 2.53% and the “Screen (T. gondii)” value ([3]; library screen at 2 μg/mL, RH strain) was “A, A”.

`CC(C=CC1OC(=O)C=CC1C)=CC(C)CC=CC(C)=CC(C)C(=O)C(C)C(O)C(C)CC(C)=CC(=O)O` (stereo not drawn) [BIA-L1045] was tested, and the Pf_72h_%Growth_Rep1 ([1]; P. falciparum 3D7, 72 h, library screen at 2 μg/mL, % growth, replicate 1) was 49.36%, the Pf_72h_%Growth_Rep2 ([1]; P. falciparum 3D7, 72 h, library screen at 2 μg/mL, % growth, replicate 2) was 24.76% and the Pf_120h_%Growth_Rep1 ([2]; P. falciparum 3D7, 120 h, library screen at 2 μg/mL, % growth, replicate 1) was 60.90%. For the same compound, the Pf_120h_%Growth_Rep2 ([2]; P. falciparum 3D7, 120 h, library screen at 2 μg/mL, % growth, replicate 2) was 15.41%, the Tg_72h_%Growth_Rep1 ([3]; T. gondii RH, library screen at 2 μg/mL, % growth, replicate 1) was -0.52% and the Tg_72h_%Growth_Rep2 ([3]; T. gondii RH, library screen at 2 μg/mL, % growth, replicate 2) was -0.11%.
